The text below walks through data of US12226405B2, “Compounds and compositions for inhibiting the activity of HIF2-alpha and their methods of use” (Novartis AG, priority 2020, dated 2025).

Bounds are passed on as bounds.

Assay [1] has as its system HIF2α-dependent transcription in 786-O-HRE-Luc cells. Nature of the assay: In vitro cellular hypoxia response element (HRE) reporter gene assay (RGA) for HIF2α. In kind it is cell-based, human. The conditions noted are these: Homo sapiens, 24 hours incubation. The protocol:
(§1) Stock solutions of compounds were prepared at a concentration of 10 mM in DMSO and stored at 4° C. Where necessary to afford a full dose-response curve, the stock solutions were pre-diluted in DMSO to 1,000-fold the desired reduced start concentration. On the day after cell seeding, eleven 2-fold serial dilutions of each compound were dispensed directly into the cell assay plates using either HP 300D non-contact Digital Dispenser (TECAN) or a ATS100 acoustic dispenser (EDC Biosystems).
The ability of compounds to inhibit HIF2α- and HIF1α-dependent transcription was assessed in 786-O-HRE-Luc and RCC4-HRE-Luc cells, respectively. The putative unselective inhibition of firefly luciferase activity or expression was assessed in 786-O-UB6-Luc and RCC4-UB6-Luc cells, respectively. The reporter lines were generated as follows: 786-O (RRID: CVCL_1051) and RCC4 (RRID: CVCL_0498) clear cell renal carcinoma cell lines were obtained from ATCC and Celeste Simon (University of Pennsylvania), respectively. Either cell line was transduced with a lentiviral vector in which the expression of a PEST-destabilized version of firefly-luciferase is under the control of either a minimal promoter coupled to four copies of a minimal hypoxia response element (HRE) sequence (pLenti 4×HRE Luc PEST), or a promoter from the house-keeping UBC gene (pLenti UB6 Luc PEST). In short, for the construction of the pLenti 4×HRE Luc PEST vector, 4×HRE DNA oligonucleotides were synthesized, annealed and cloned into pGL4.27 plasmid vector (Promega) predigested with NheI and HindIII restriction enzymes. The sequence of the two DNA oligonucleotides was as follows: NheI 4×HRE HindIII FWD: […] (SEQ ID NO: 8); NheI 4×HRE HindIII REV […] (SEQ ID NO: 9). The 4×HRE Luc PEST fragment was then PCRed from this plasmid with restriction enzyme sites NheI and XhoI at the two ends, and inserted into pLenti6/BLOCK iT DEST (Thermo Fisher Scientific) predigested with NheI and XhoI restriction enzymes. For the construction of the pLenti UB6 Luc PEST vector, the Luc PEST sequence was PCRed from pGL4.27 (Promega) using EcoRV and XhoI restriction enzymes at the two ends, and inserted into pLenti6/UBC/V5/DEST (Thermo Fisher Scientific) predigested with the same enzymes. 786-O and RCC4 cells (300,000 per well of a 6 well plate) were infected in the presence of 10 μg/ml polybrene with lentivirus harvested two days after transfection of HEK293-FT (ThermoFisher Scientific #R70007) cells (80% confluent in a 100 cm^2 dish) with a mix of 1.5 ml OptiMEM (ThermoFisher Scientific #31985062) containing 3 μg of the desired plasmids and 9 μl of ViralPower Packaging mix (ThermoFisher Scientific #K497500), and 1.5 ml OptiMEM containing 36 μl Lipofectamine 2000 (ThermoFisher Scientific #11668019). Successfully infected cells were selected using blasticidin (Gibco #A11139-03) at a final concentration of 5 μg/ml. The resulting stable cell lines were named 786-O pLenti 4×HRE Luc PEST (short: 786-O-HRE-Luc), 786-O pLenti UB6 Luc PEST (short: 786-O-UB6-Luc), RCC4 pLenti 4×HRE Luc PEST (short: RCC4-HRE-Luc) and RCC4 pLenti UB6 Luc PEST (short: RCC4-UB6-Luc). All 4 cell lines were maintained in growth medium composed of DMEM (GIBCO #11995-065), 2 mM L-Glutamine (BioConcept #5-10K50-H), 10% fetal calf serum (Gibco #A31608-01), 1× Penicillin/Streptomycin (BioConcept #4-01F00-H), 1 mM Sodium pyruvate (BioConcept #5-60F00-H) and 5 μg/ml blasticidin (Gibco #A11139-03) at 37° C. in a humidified 5% CO2 incubator.
For the reporter gene assay, the individual cell lines were seeded at 2,500 cells/20 μL/well into white-wall, clear-bottom 384-well plates (Greiner #781098) and incubated over night at 37° C. prior to addition of serial compound dilutions as described above. […]
On the technique in general: Reporter assays use an easily measured gene product as a stand-in for the process of interest.

In assay [2] the test system is HIF2α-regulated expression of the endogenous target gene hEGLN3 in 786-O cells. Put plainly: Cellular iScript assay for HIF2α (quantitative RT-PCR of hEGLN3). The assay is classed as cell-based, human. The conditions noted are these: Homo sapiens, 786-0, 48 hours incubation. The method, then: as §1
Compound-mediated modulation of the HIF2α-regulated expression of the endogenous target gene hEGLN3 (OMIM: 606426), as well as beta-actin (OMIM: 102630) as a house-keeping control, was assess in 786-O cells (RRID CVCL_1051) using a quantitative RT-PCR approach. In short, 786-O cells were maintained in growth medium composed of DMEM (GIBCO #11995-065), 2 mM L-Glutamine (BioConcept #5-10K50-H), 1× Penicillin/Streptomycin (BioConcept #4-01F00-H), 10% fetal calf serum (Gibco #A31608-01), 1 mM Sodium pyruvate (BioConcept #5-60F00-H). Cells were seeded at 1,000 cells/20 μL/well into white-wall, clear-bottom 384-well plates (Greiner #781098) and incubated over night at 37° C. prior to addition of serial compound dilutions as described above. Following incubation for 48 hours at 37° C., medium supernatant was discarded and the plate blotted dry by inverting on a tissue. The same procedure was repeated following one wash with 20 μL phosphate-buffered saline. Following addition of 25 μL/well iScript sample preparation reagent (BioRad #170-8899) using a 16-channel Matrix pipette, the plate was incubated for 2 min at room temperature. 20 μL lysate supernatant was then removed and transferred to a new 384 well plate (Costar #3656) and diluted 1:3 by adding 5 μL of the lysate to 10 μL H2O using a Bravo liquid handler (Agilent). 2 μL of the diluted lysate was added to the 8 μL of a mastermix containing 5 μL iTaq Universal Probes One-step kit (BioRad #172-5141), 0.25 μL iScript reverse transcription supermix (BioRad #1708840), 0.25 μL 40×HEX-ZEN-labeled TaqMan probe for beta-actin (IDT #Hs.PT.39a.22214847: Probe 5′ HEX-TCA TCC ATG/ZEN/GTG AGC TGG CGG-3′ (SEQ ID NO: 2) Iowa Black FQ, Primer 1: ACA GAG CCT CGC CTT TG (SEQ ID NO: 3); Primer 2: CCT TGC ACA TGC CGG (SEQ ID NO: 4) AG), 0.25 μL, 40×FAM-ZEN-labeled TaqMan probe for hEGLN3 (IDT #Hs.PT.58.189348: Probe 5′ 6-FAM-TTT GGC TTC/ZEN/TGC CCT TTC TTC AGC-3′ (SEQ ID NO: 5) Iowa Black FQ, Primer 1: CACGGTCAGTCTTCAGTGAG (SEQ ID NO: 6); Primer 2: CGCAACCAGATATGCTATGACT (SEQ ID NO: 7)), 2.25 μL RNase-free water, prelaid in a 384 well plate (ABI #4309849) using a 16-channel Matrix pipette. The plate was sealed with a PCR-compatible optical film (MicroAmp, ABI #4360954) and centrifuged (1500 rpm, 5 min, +4° C.) to collect all reagents in the bottom of the well and to remove bubbles. The plate content was amplified on a 7900HT thermal cycler (ABI) using the following conditions: Step 1: 50° C. for 10 min, Step 2: 95° C. for 3 min, Step 3 (40×): 95° C. for 15 s, 60° C. for 1 min. ROX (reaction volume 10 μL) was used as a passive reference. Data were collected with manual adjustment of the Ct threshold (beta-actin: 0.046, hEGLN3: 0.06) and were analyzed using the 2^(−ΔΔCt) method. Thus, for each sample, the following values were calculated: 2^(−Ct)a for beta-actin, 2^(−Ct)e for EGLN3, and 2^(−ΔCt) calculated as (2^(−Ct)e/2^(−Ct)a). The mean 2^(−ΔCt) as well as the corresponding standard deviation was calculated for each sample. Taking the DMSO-treated sample as a reference, the 2^(−ΔΔCt) for each sample was calculated as follows: 2^(−ΔΔCt)=2^(−ΔCt)sample/(2^(−ΔCt)DMSO). After calculating differential expression as 2^(−ΔΔCt) for each sample, it was then expressed as a percentage (×100) to obtain a dose-response curve in % of DMSO control and IC50s were calculated using a four-parametric fit model.

Assay [3] has as its target HIF2α PAS-B domain (236-350, biotinylated on the N-terminus) (Homo sapiens (Human), UniProt Q99814).
Method: The assay buffer contained 50 mM Tris-HCl pH7 (Sigma), 20 mM NaCl (Fluka), 0.02% BSA (Sigma), 0.005% Triton X-100 (Pierce) and 1 mM DTT (Fluka). After a 30 min incubation period, 5 μL Streptavidin PVT SPA Beads (Perkin Elmer) at 1.2 mg/mL, diluted in the buffer, were added.

Sequence of HIF2α PAS-B domain (236-350, biotinylated on the N-terminus) (Q99814 236-350): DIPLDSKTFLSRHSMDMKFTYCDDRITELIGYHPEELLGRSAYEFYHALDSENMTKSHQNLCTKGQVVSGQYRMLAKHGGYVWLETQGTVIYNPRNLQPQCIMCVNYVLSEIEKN

As a reminder, the IC50 is the concentration that inhibits the measured activity by half. Read a low IC50 as greater potency. With `COC1=CC(C(F)(F)F)=CN2C[C@@]3(CCC(F)(F)c4c3ccnc4Cl)N=C12` [Example 30, (S)-1′-chloro-8′,8′-difluoro-8-methoxy-6-(trifluoromethyl)-7′,8′-dihydro-3H,6′H-spiro[imidazo[1,2-a]pyridine-2,5′-isoquinoline]], the IC50 worked out at 1350 nM in assay [1], 129 nM in assay [2] and 27 nM in assay [3].
The corresponding values for `Fc1cccc2c1COC[C@@]21CN2C=C(C(F)(F)F)C=C(OC(F)F)C2=N1` [Example 63, (S)-8-(difluoromethoxy)-8′-fluoro-6-(trifluoromethyl)-3H-spiro[imidazo[1,2-a]pyridine-2,4′-isochroman]] are 465 nM, 197 nM and 11 nM.
The corresponding values for `Fc1cccc2c1OCC[C@@]21CN2C=C(C(F)(F)F)C=C(OC(F)F)C2=N1` [Example 47, (S)-8′-(difluoromethoxy)-8-fluoro-6′-(trifluoromethyl)-3′H-spiro[chroman-4,2′-imidazo[1,2-a]pyridine]] are 694 nM, 82 nM and 11 nM.
For `Cc1nccc2c1C(F)(F)CC[C@@]21CN2C=C(C(F)(F)F)C=C(OC(F)F)C2=N1` [Example 32, (S)-8-(difluoromethoxy)-8′,8′-difluoro-1′-methyl-6-(trifluoromethyl)-7′,8′-dihydro-3H,6′H-spiro[imidazo[1,2-a]pyridine-2,5′-isoquinoline]], in that order: 861 nM, 78 nM and 13 nM.
Turning to `Fc1ccc2c(c1Cl)CCC[C@@]21CN2C=C(C(F)(F)F)C=C(OC(F)F)C2=N1` [Example 82, (5)-5′-chloro-8-(difluoromethoxy)-6′-fluoro-6-(trifluoromethyl)-3′,4′-dihydro-2′H,3H-spiro[imidazo[1,2-a]pyridine-2,1′-naphthalene]], the IC50 in assay [1] was 155 nM; in assay [2], 39 nM; in assay [3], ≤ 3 nM.
For `FC(F)OC1=CC(C(F)(F)F)=CN2C[C@@]3(N=C12)c1ccc(I)cc1OC[C@@H]3F` [Example 60, (2′S,3R)-8′-(difluoromethoxy)-3-fluoro-7-iodo-6′-(trifluoromethyl)-3′H-spiro[chroman-4,2′-imidazo[1,2-a]pyridine]], in that order: 65 nM, 27 nM and 6 nM.
Regarding `O=C1c2c(ccc(Br)c2F)[C@@]2(C[C@H]1F)CN1C=C(C(F)(F)F)C=C(OC(F)F)C1=N2` [Example 9, (1′S)-6′-bromo-8-(difluoromethoxy)-3′,5′-difluoro-6-(trifluoromethyl)-2′H,3H-spiro[imidazo[1,2-a]pyridine-2,1′-naphthalen]-4′(3H′)-one], the IC50 in assay [1] came to 2210 nM; in assay [2], 173 nM; in assay [3], 15 nM.
Regarding `Fc1c(Br)ccc2c1C(F)(F)CC[C@@]21CN2C=C(C(F)(F)F)C=C(OC(F)F)C2=N1` [Example 14, (S)-6′-bromo-8-(difluoromethoxy)-4′,4′,5′-trifluoro-6-(trifluoromethyl)-3′,4′-dihydro-2′H,3H-spiro[imidazo[1,2-a]pyridine-2,1′-naphthalene]], the results for the IC50 in assay [1], in assay [2] and in assay [3] were 146 nM, 57 nM and 9 nM, respectively.
On to `N#CC1=CN2C[C@@]3(CCCc4c3ccnc4Cl)N=C2C(OC(F)F)=C1` [Example 94, (S)-1′-chloro-8-(difluoromethoxy)-7′,8′-dihydro-3H,6′H-spiro[imidazo[1,2-a]pyridine-2,5′-isoquinoline]-6-carbonitrile], for which the IC50 was 2260 nM in assay [1], 197 nM in assay [2] and 33 nM in assay [3].
Take `FC(F)OC1=CC(C(F)(F)F)=CN2C[C@@]3(CCOc4c(C(F)F)cccc43)N=C12` [Example 55, (S)-8′-(difluoromethoxy)-8-(difluoromethyl)-6′-(trifluoromethyl)-3′H-spiro[chroman-4,2′-imidazo[1,2-a]pyridine]]: the IC50 in assay [1] came out at 7650 nM; in assay [2], 115 nM; in assay [3] it was 9 nM.
